The text below walks through data of PMC2064570 (The Journal of Cell Biology, 2006).

SMILES strings stand for the structures.

In assay [1] the target is T1, TbPTP1 (Trypanosoma brucei, UniProt Q38AT7).
T1 sequence (Q38AT7 1-306): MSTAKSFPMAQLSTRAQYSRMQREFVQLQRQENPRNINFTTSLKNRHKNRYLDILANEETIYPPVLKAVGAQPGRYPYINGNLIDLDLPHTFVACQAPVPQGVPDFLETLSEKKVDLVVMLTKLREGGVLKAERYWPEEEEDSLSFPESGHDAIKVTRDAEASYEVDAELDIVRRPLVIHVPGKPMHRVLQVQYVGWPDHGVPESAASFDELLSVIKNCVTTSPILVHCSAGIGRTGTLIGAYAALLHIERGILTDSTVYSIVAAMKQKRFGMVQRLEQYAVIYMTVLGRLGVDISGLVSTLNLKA
In words: pNPP hydrolysis inhibition. The settings on record: read-out: % inhibition at 10 μM. The format is biochemical.

In assay [2] the target is T1, TbPTP1. In words: malachite green phosphate release, Lineweaver-Burk. The settings on record: 50 mM Hepes, 150 mM NaCl, pH 7.0, 37 °C. The format is biochemical.
Assay [3] concerns the target T1, TbPTP1. The settings on record: pNPP or pEGFR peptide as substrate.

One may read the inhibition as the change of the read-out against control, counted positive when it falls. On to `CCc1oc2cc(S(=O)(=O)Nc3ccc(S(=O)(=O)Nc4nccs4)cc3)ccc2c1C(=O)c1cc(Br)c(O)c(Br)c1` [BZ3, 3-(3,5-Dibromo-4-hydroxy-benzoyl)-2-ethyl-benzofuran-6-sulfonicacid-(4-(thiazol-2-ylsulfamyl)-phenyl)-amide], for which the inhibition at 10 µM on TbPTP1 [1] is greater than 50%.
Take `N[C@@H](COP(=O)(O)O)C(=O)O` [pSer]: the Km result at TbPTP1 [2] was “phospho-Tyr (pTyr), and phospho-Ser (pSer)”.
By % inhibition is commonly meant the drop in the measured response relative to a control, in per cent. Low readings indicate little suppression, high ones strong suppression. Consider `[O]=[V]([OH])([OH])[OH]` [sodium orthovanadate], for which the “% inhibition at 1 mM” value at TbPTP1 [3] amounted to 90%.
